Measured values from ChEMBL document CHEMBL1201862, “PubChem BioAssay data set” (2004).
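Briefly, cells in 96-well plates were exposed to five compound concentrations for 48 h, and endpoints were estimated by linear interpolation. GI50: concentration for 50% inhibition of growth.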 Active and inactive are the calls of the source. Rule as the data show it: active = GI50 up to about 1.1 µM and inactive = higher.

Tests used:
Assay in all cases: NCI-60 cell line screen, 48 h
[1] = system: UO-31
[2] = system: OVCAR-4
[3] = system: HOP-92
[4] = system: SN12C
[5] = system: TK-10
[6] = system: SK-MEL-5
[7] = system: Malme-3M
[8] = system: HT-29
[9] = system: CAKI-1
[10] = system: SK-MEL-2
[11] = system: SNB-75
[12] = system: SF-295
[13] = system: OVCAR-8
[14] = system: LOX IMVI
[15] = system: SF-539
[16] = system: NCI-H522
[17] = system: 786-0
[18] = system: K562
[19] = system: EKVX

Measured: GI50

S=C1SCC2CCCN12 (stereo unspecified)
inactive: [1] > 100 µM | [2] > 100 µM | [3] > 100 µM | [4] > 100 µM | [5] > 100 µM | [6] > 100 µM | [7] > 100 µM | [8] > 100 µM | [9] > 100 µM | [10] > 100 µM | [11] > 100 µM | [12] > 100 µM | [13] > 100 µM | [14] > 100 µM | [15] > 100 µM | [16] > 100 µM | [17] > 100 µM | [18] > 100 µM

O=C(CCc1cc(-c2ccco2)n(-c2ccc([N+](=O)[O-])cc2[N+](=O)[O-])n1)Nc1ccccc1
inactive: [1] > 100 µM | [2] > 100 µM | [3] > 100 µM | [4] > 100 µM | [6] > 100 µM | [7] 32.8 µM | [8] > 100 µM | [9] > 100 µM | [10] > 100 µM | [11] > 100 µM | [12] > 100 µM | [13] > 100 µM | [15] > 100 µM | [16] > 100 µM | [17] > 100 µM | [18] 45.5 µM | [19] > 100 µM

O=C(CO)CC(=O)C(=O)Nc1cccc(C(F)(F)F)c1
inactive: [1] > 100 µM | [2] > 100 µM | [3] > 100 µM | [4] > 100 µM | [5] > 100 µM | [7] > 100 µM | [8] > 100 µM | [9] > 100 µM | [10] > 100 µM | [11] > 100 µM | [12] > 100 µM | [13] > 100 µM | [14] > 100 µM | [15] > 100 µM | [16] > 100 µM | [17] > 100 µM | [18] > 100 µM

O=c1c2ccccc2[nH]c2c(O)ccc(O)c12
inactive: [1] 37.7 µM | [2] 3.39 µM | [3] 18.8 µM | [4] 14.2 µM | [5] 26.3 µM | [7] 24 µM | [8] 38.6 µM | [9] 13.9 µM | [10] 29.4 µM | [11] > 10 µM | [12] 17.3 µM | [13] 17.9 µM | [14] 17.8 µM | [15] 27.6 µM | [16] 15.1 µM | [17] 18.8 µM | [18] 17.5 µM | [19] > 41.7 µM

NC1CCC[C@H]1O (stereo partly specified)
inactive: [1] > 100 µM | [2] > 100 µM | [3] > 100 µM | [4] > 100 µM | [5] > 100 µM | [6] > 100 µM | [7] > 100 µM | [8] > 100 µM | [10] > 100 µM | [11] > 100 µM | [12] > 100 µM | [13] > 100 µM | [14] > 100 µM | [15] > 100 µM | [16] > 100 µM | [17] > 100 µM | [18] > 100 µM | [19] > 100 µM

O=C1OC(c2ccccc2)=N/C1=C/NC(Cc1c[nH]cn1)C(=O)O (stereo unspecified)
inactive: [1] > 100 µM | [2] > 100 µM | [3] > 100 µM | [4] > 100 µM | [5] > 100 µM | [6] > 100 µM | [7] > 100 µM | [8] > 100 µM | [10] > 100 µM | [11] > 100 µM | [12] > 100 µM | [13] > 100 µM | [14] > 100 µM | [15] > 100 µM | [16] > 100 µM | [17] > 100 µM | [18] > 100 µM | [19] > 100 µM
